For one data set, the system named is fibroblast cells. Nature of the data set: Cytotoxicity assay, normal cells. Format: cell-based.
A further data set deals with trypsin. As to the kind of experiment: Amidolytic activity of trypsin (substrate Bzl-L-Arg-pNA). In kind it is biochemical. The following applies: maximum concentration 20 mM. As for the experimental part:
(§1) Determination of amidolytic activity was performed as previously described by (Okada et al. [1988]). Buffer and 0.1 ml of enzyme solution was added to 0.2 ml of examined compound dissolved in 0.15 M NaCl (1–15) (as control 0.15 M NaCl). The buffer and the enzyme solution included: • tris buffer—0.6 ml (pH 8.8), enzyme: urokinase (50 units/ml), synthetic substrate: S-2444 (0.1 ml, 3 mM); • tris buffer—0.5 ml (pH 8.4), enzyme: thrombin (1 units/ml), synthetic substrate: S-2238 (0.2 ml, 0.75 mM); • tris buffer—0.5 ml (pH 7.4), enzyme: plasmin (0.4 units/ml), synthetic substrate: S-2251 (0.2 ml, 3 mM); • […]—0.5 ml (pH 7.5), enzyme: trypsin (0.4 units/ml), synthetic substrate: Bzl-L-Arg–pNA.HCl (0.2 ml, 8 mM); • tris buffer—0.6 ml (pH 9.0), enzyme: kallikrein (3 units/ml), synthetic substrate: S-2266 (0.1 ml, 75 mM); • tris buffer—0.6 ml (pH 8.4), enzyme: t-PA ([…]), synthetic substrate: S-2288 (0.1 ml, 10 mM).
(§2) IC50 values were determined (IC50, Inhibitor Concentration, the concentration at which enzyme activity is inhibited by 50 %). Our results were compared with the 6-aminohexanoic acid.

The target in a further data set is T1, plasmin (Homo sapiens, UniProt P00747).
T1 construct: The amino-terminal heavy chain of PL consists of five kringle domains; The C-terminal light chain of plasmin is a typical serine protease (SP); purchased Chromogenix (Milano, Italy)
Nature of the data set: Amidolytic activity of plasmin (substrate S-2251). The following applies: maximum concentration 20 mM. Format: biochemical. The protocol: as §1, §2

The test system of data set [1] is fibrinolysis in whole blood. As to the kind of experiment: Thromboelastometric (ROTEM) analysis of clot formation and fibrinolysis in whole blood. More on the design: species or system human. The protocol:
Five healthy volunteers, men (age range: 25–34 years)) with normal blood cell counts were entered into the study. Healthy volunteers had not taken medication known to affect platelet function and/or coagulation for at least 10 days before blood sampling.
Blood was stored at room temperature for 30 min after venipuncture and then was evaluated by thromboelastometric analyses.
Thromboelastometric measurements were performed using ROTEM system (Tem International GmbH, Manheim, Germany). […] We measured the parameters characterized kinetic of clot formation (clotting time, alpha angle), clot strength (maximal clot firmness; MCF), and fibrinolysis (percentage reduction of MCF, clot lysis time).

The test system of the next data set is MDA-MB-231 cells. Nature of the data set: Cytotoxicity assay (method of Plumb et al.). In kind it is cell-based. The following applies: 10, 100, 250, 500 and 1000 μM. The protocol: (§3) All studies were performed on MCF-7, MDA-MB-231 and DLD cells lines were purchased from American Type Culture Collection (Rockville, MD). The cells were maintained in DMEM supplemented with 5 % fetal bovine serum (FBS), […] glutamine, 50 U/ml penicillin, […] streptomycin at 37 °C in a 5 % CO2 incubator.
(§4) The toxicity of the evaluated peptides was determined by the method of Plumb et al. ([1989]) in 10, 100, 250, 500 and 1000 μM concentrations. MCF-7, MDA-MB-231 and DLD cells were maintained as described above. The detailed description of the method is given by (Markowska et al. [2013]).

For another data set, the system named is MCF-7 cells. As to the kind of experiment: Cytotoxicity assay (method of Plumb et al.). Format: cell-based. Conditions: 10, 100, 250, 500 and 1000 μM. As for the experimental part: as §3, §4
For data set [2], the system named is colon cancer cell line DLD-1. As to the kind of experiment: Cytotoxicity assay (method of Plumb et al.). Format: cell-based. Conditions: 10, 100, 250, 500 and 1000 μM. The protocol: as §3, §4
The target in the next data set is T2, tPA (Homo sapiens, UniProt P00750).
T2 construct: purchased Boehringer Ingelheim GmbH (Ingelheim, Germany)
As to the kind of experiment: Amidolytic activity of t-PA (substrate S-2288). Format: biochemical. The following applies: maximum concentration 20 mM. As for the experimental part: as §1, §2

For another data set, the target named is T3, uPA (Homo sapiens, UniProt P00749).
T3 construct: purchased Sigma (Schnelldorf, Germany)
As to the kind of experiment: Amidolytic activity of urokinase (substrate S-2444). The following applies: maximum concentration 20 mM. Format: biochemical. As for the experimental part:
as §1, §2

For the next data set, the target named is T4, thrombin (Bos taurus, UniProt P00735).
T4 construct: purchased Lubelska Wytwórnia Szczepionek (Lublin, Poland)
Nature of the data set: Amidolytic activity of thrombin (substrate S-2238). In kind it is biochemical. Conditions: maximum concentration 20 mM. The protocol:
as §1, §2

Another data set relates to kallikrein. Nature of the data set: Amidolytic activity of kallikrein (substrate S-2266). Format: biochemical. The following applies: maximum concentration 20 mM, S-2266, pH 9.0. As for the experimental part: as §1, §2
Setting [3] is: recalcified human whole blood, 140 ng/ml TF, 125 ng/ml tPA.

Bounds are passed on as bounds.

T2 sequence (P00750 36-562): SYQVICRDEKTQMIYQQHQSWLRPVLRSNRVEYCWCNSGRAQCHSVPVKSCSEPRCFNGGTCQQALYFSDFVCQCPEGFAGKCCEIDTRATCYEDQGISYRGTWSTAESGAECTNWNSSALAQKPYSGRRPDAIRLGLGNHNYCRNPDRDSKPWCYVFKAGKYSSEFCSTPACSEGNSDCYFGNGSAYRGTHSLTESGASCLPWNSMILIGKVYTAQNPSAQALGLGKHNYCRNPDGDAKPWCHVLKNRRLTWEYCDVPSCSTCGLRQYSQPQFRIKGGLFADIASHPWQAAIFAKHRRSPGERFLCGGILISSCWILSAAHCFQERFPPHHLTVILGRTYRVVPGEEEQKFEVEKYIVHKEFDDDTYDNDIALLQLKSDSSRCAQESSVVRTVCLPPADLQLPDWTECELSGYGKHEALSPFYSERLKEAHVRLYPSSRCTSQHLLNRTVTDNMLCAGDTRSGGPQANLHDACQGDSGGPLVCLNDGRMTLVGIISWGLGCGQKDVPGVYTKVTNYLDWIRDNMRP
T1 sequence (P00747 97-580 limits assumed): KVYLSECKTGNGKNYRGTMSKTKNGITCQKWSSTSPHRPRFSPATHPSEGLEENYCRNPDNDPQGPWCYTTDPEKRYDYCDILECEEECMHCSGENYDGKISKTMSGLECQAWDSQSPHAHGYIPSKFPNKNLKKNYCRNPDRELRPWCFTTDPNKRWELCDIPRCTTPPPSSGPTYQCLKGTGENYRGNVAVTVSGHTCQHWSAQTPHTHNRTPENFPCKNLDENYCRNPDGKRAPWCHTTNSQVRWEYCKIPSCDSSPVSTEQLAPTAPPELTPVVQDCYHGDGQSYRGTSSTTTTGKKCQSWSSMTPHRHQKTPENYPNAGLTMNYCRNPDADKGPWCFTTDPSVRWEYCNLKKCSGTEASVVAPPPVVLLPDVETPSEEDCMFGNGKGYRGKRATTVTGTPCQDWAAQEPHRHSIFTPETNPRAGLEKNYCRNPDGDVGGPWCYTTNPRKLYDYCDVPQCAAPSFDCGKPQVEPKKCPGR
T1 sequence (P00747 581-810 limits assumed): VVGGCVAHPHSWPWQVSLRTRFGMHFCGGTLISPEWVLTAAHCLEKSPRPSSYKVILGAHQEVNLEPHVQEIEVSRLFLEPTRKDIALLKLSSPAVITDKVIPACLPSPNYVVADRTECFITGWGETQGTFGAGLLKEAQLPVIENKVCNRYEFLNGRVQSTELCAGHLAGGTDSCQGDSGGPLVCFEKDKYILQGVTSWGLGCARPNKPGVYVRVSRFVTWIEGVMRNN

For the molecule `NCCCCCC(=O)O` [EACA, 6-aminohexanoic acid], the “cytotoxic effect / viability of fibroblast cells” value in the data set with fibroblast cells is given as “did not display cytotoxicity”. Besides, in the data set with trypsin, the “effect on amidolytic activity of trypsin (in words)” value is recorded as “No effect”. Also, the “effect on amidolytic activity of plasmin (in words)” value at plasmin is “No effect”. The “clotting time (CT, coagulation time)” value in [1] (human whole blood, control 174 s) came out at 137 s. Moreover, the “lysis of the clot in 45 min (from LI45)” value in data set [1] (human whole blood, whole blood alone about 61 %) is reported as 1%. For the same molecule, in data set [1] (setting [3]), the “LOT lysis onset time (clot amplitude reduced by 15 %)” value is on record as not below 4084 s and the “LT lysis time (clot reduced/lysed by 90 %)” value was not below 168 min. For the same molecule, the “LI30 lysis index, amplitude of clot after 30 min” value in data set [1] (recalcified human whole blood, TF + tPA, 30 min) is given as 100%. Further, the “LI45 lysis index, amplitude of clot after 45 min” value in data set [1] (recalcified human whole blood, TF + tPA, 45 min) was found to be 98%. Moreover, in data set [1] (recalcified human whole blood, TF + tPA, 60 min), the “LI60 lysis index, amplitude of clot after 60 min” value was found to be 92%. The “cytotoxic effect / viability of MDA-MB-231 cells” value in the data set with MDA-MB-231 cells was “did not display cytotoxicity”. In addition, the “cytotoxic effect / viability of MCF-7 cells” value with MCF-7 cells is listed as “did not display cytotoxicity”. Besides, the “cytotoxic effect / viability of DLD-1 cells” value in [2] is “did not display cytotoxicity”. In addition, on tPA, the “effect on amidolytic activity of tPA (in words)” value is recorded as “No effect”. For the same molecule, the “effect on amidolytic activity of uPA (in words)” value on uPA is “No effect”. The “effect on amidolytic activity of thrombin (in words)” value at thrombin was “No effect”. The “influence on the enzymatic activity of kallikrein” value with kallikrein was “No effect”.

These data come from paper PMC5401710, “Peptides with 6-Aminohexanoic Acid: Synthesis and Evaluation as Plasmin Inhibitors” (International Journal of Peptide Research and Therapeutics, 2016).
